These compounds were tested on RS4; 11 cells (assay: Cell proliferation assay (MTS), RS4; 11 cells). Settings: Homo sapiens, RS4-11, 72 h, RS4; 11 (ATCC CRL-1873) cell proliferation, 30000 cells/well, 72 h, MTS; mechanism-based readout of Bcl-2 inhibition; read-out: RS4; 11 IC50.
Assay type: cell-based
Excerpt: MTS testing kit was purchased from Promega. The RPMI-1640, Fetal bovine serum and Penicillin-Streptomycin were purchased from Gibco. Dimethyl sulfoxide (DMSO) was purchased from Sigma.
To investigate whether a compound is able to inhibit the activity of Bcl-2 in cells, a mechanism-based assay using DOHH2 (DSMZ No.® ACC 47) and RS4; 11 (ATCC® CRL-1873™) cell was developed. In this assay, inhibition of Bcl-2 was detected by the inhibition of DOHH2 and RS4; 11 cells proliferation. DOHH2 and RS4; 11 cells were cultured in culture flasks to 40-80% confluence in RPMI-1640 plus 10% fetal bovine serum. Cells were collected and plated onto 96-well plates at desired cell density (DOHH2: 5000 cells/well; RS4; 11: 30000 cells/well). Plates were incubated overnight at 37° C., with 5% CO2 to adhere. Compounds were added to the plates, and the final compound concentrations were 10000, 3333, 1111, […], 124, 41, 14, 4.6 and 1.5 nM. Plates plated with DOHH2 or RS4; 11 cells were placed at 37° C., with 5% CO2 for 120 h (DOHH2) or 72 h (RS4; 11) respectively. 20 μl MTS/100 μl medium mixture solution were added to each well and incubate the plates for exactly 2 hours. The reaction was stopped by adding 25 μl 10% SDS per well. Measure absorbance at 490 nm and 650 nm (reference wavelength). ICso was calculated using GraphPad Prism 5.0.

Row | SMILES | IC50 [nM]
1 | CN=S1(=O)CCC(CNc2ccc(S(=O)(=O)NC(=O)c3ccc(N4CCN(CC5=C(c6ccc(Cl)cc6)CC(C)(C)CC5)CC4)cc3Oc3cnc4[nH]ccc4c3)cc2[N+](=O)[O-])CC1 (stereo not drawn) [Example 29, 2-((1H-pyrrolo[2,3-b]pyridin-5-yl)oxy)-4-(4-((4′-chloro-5,5-dimethyl-3,4,5,6-tetrahydro-[1,1′-biphenyl]-2-yl)methyl)piperazin-1-yl)-N-((4-(((1-(methylimino)-1-oxidohexahydro-1λ^6-thiopyran-4-yl)methyl)amino)-3-nitrophenyl)sulfonyl)benzamide] | 323
2 | CC(Nc1ccc(S(=O)(=O)NC(=O)c2ccc(N3CCN(CC4=C(c5ccc(Cl)cc5)CC(C)(C)CC4)CC3)cc2Oc2cnc3[nH]ccc3c2)cc1[N+](=O)[O-])C1CCS(=O)(=NC2CC2)CC1 (stereo not drawn) [Example 62, 2-((1H-pyrrolo[2,3-b]pyridin-5-yl)oxy)-4-(4-((4′-chloro-5,5-dimethyl-3,4,5,6-tetrahydro-[1,1′-biphenyl]-2-yl)methyl)piperazin-1-yl)-N-((4-((1-(1-(cyclopropylimino)-1-oxidohexahydro-1λ^6-thiopyran-4-yl)ethyl)amino)-3-nitrophenyl)sulfonyl) benzamide] | 160
3 | CC(Nc1ccc(S(=O)(=O)NC(=O)c2ccc(N3CCN(CC4=C(c5ccc(Cl)cc5)CC(C)(C)CC4)CC3)cc2Oc2cnc3[nH]ccc3c2)cc1[N+](=O)[O-])C1CCS(=O)(=NC#N)CC1 (stereo not drawn) [Example 32, 2-((1H-pyrrolo[2,3-b]pyridin-5-yl)oxy)-4-(4-((4′-chloro-5,5-dimethyl-3,4,5,6-tetrahydro-[1,1′-biphenyl]-2-yl)methyl)piperazin-1-yl)-N-((4-((1-(1-(cyanoimino)-1-oxidohexahydro-1λ^6-thiopyran-4-yl)ethyl)amino)-3-nitrophenyl)sulfonyl)benzamide] | 438
4 | CC1(C)CCC(CN2CCN(c3ccc(C(=O)NS(=O)(=O)c4ccc(NCCN5CCS(=O)(=NC#N)CC5)c([N+](=O)[O-])c4)c(Oc4cnc5[nH]ccc5c4)c3)CC2)=C(c2ccc(Cl)cc2)C1 [Example 36, 2-((1H-pyrrolo[2,3-b]pyridin-5-yl)oxy)-4-(4-((4′-chloro-5,5-dimethyl-3,4,5,6-tetrahydro-[1,1′-biphenyl]-2-yl)methyl)piperazin-1-yl)-N-((4-((2-(1-(cyanoimino)-1-oxido-1λ^6-thiomorpholino)ethyl)amino)-3-nitrophenyl)sulfonyl) benzamide] | 232
5 | CC1(C)CCC(CN2CCN(c3ccc(C(=O)NS(=O)(=O)c4ccc(NCCN5CCS(=O)(=NS(C)(=O)=O)CC5)c([N+](=O)[O-])c4)c(Oc4cnc5[nH]ccc5c4)c3)CC2)=C(c2ccc(Cl)cc2)C1 [Example 71, 2-((1H-pyrrolo[2,3-b]pyridin-5-yl)oxy)-4-(4-((4′-chloro-5,5-dimethyl-3,4,5,6-tetrahydro-[1,1′-biphenyl]-2-yl)methyl)piperazin-1-yl)-N-((4-((2-(1-((methylsulfonyl)imino)-1-oxido-1λ^6-thiomorpholino)ethyl)amino)-3-nitrophenyl)sulfonyl)benzamide] | 258
6 | CC1(C)CCC(CN2CCN(c3ccc(C(=O)NS(=O)(=O)c4ccc(NCCN5CCS(=O)(=NC(=O)C6CC6)CC5)c([N+](=O)[O-])c4)c(Oc4cnc5[nH]ccc5c4)c3)CC2)=C(c2ccc(Cl)cc2)C1 [Example 69, 2-((1H-pyrrolo[2,3-b]pyridin-5-yl)oxy)-4-(4-((4′-chloro-5,5-dimethyl-3,4,5,6-tetrahydro-[1,1′-biphenyl]-2-yl)methyl)piperazin-1-yl)-N-((4-((2-(1-((cyclopropanecarbonyl)imino)-1-oxido-1λ^6-thiomorpholino)ethyl)amino)-3-nitrophenyl)sulfonyl) benzamide] | 165
7 | C[C@@H](CN1CCS(=O)(=NC#N)CC1)Nc1ccc(S(=O)(=O)NC(=O)c2ccc(N3CCN(CC4=C(c5ccc(Cl)cc5)CC(C)(C)CC4)CC3)cc2Oc2cnc3[nH]ccc3c2)cc1S(=O)(=O)C(F)(F)F [Example 48, (S)-2-((1H-pyrrolo[2,3-b]pyridin-5-yl)oxy)-4-(4-((4′-chloro-5,5-dimethyl-3,4,5,6-tetrahydro-[1,1′-biphenyl]-2-yl)methyl)piperazin-1-yl)-N-((4-((1-(1-(cyanoimino)-1-oxido-1λ^6-thiomorpholino)propan-2-yl)amino)-3-((trifluoromethyl)sulfonyl)phenyl)sulfonyl)benzamide] | 173

Stronger by IC50, values ahead:

Row | IC50 [nM] | SMILES
8 | 155 | CC1(C)CCC(CN2CCN(c3ccc(C(=O)NS(=O)(=O)c4ccc(NCCN5CCS(=N)(=O)CC5)c([N+](=O)[O-])c4)c(Oc4cnc5[nH]ccc5c4)c3)CC2)=C(c2ccc(Cl)cc2)C1 [Example 46, 2-((1H-pyrrolo[2,3-b]pyridin-5-yl)oxy)-4-(4-((4′-chloro-5,5-dimethyl-3,4,5,6-tetrahydro-[1,1′-biphenyl]-2-yl)methyl)piperazin-1-yl)-N-((4-((2-(1-imino-1-oxido-1λ^6-thiomorpholino)ethyl)amino)-3-nitrophenyl)sulfonyl) benzamide]
9 | 135 | CC(=O)N=S1(=O)CCC(CNc2ccc(S(=O)(=O)NC(=O)c3ccc(N4CCN(CC5=C(c6ccc(Cl)cc6)CC(C)(C)CC5)CC4)cc3Oc3cnc4[nH]ccc4c3)cc2[N+](=O)[O-])CC1 (stereo not drawn) [Example 31, 2-((1H-pyrrolo[2,3-b]pyridin-5-yl)oxy)-N-((4-(((1-(acetylimino)-1-oxidohexahydro-1λ^6-thiopyran-4-yl)methyl)amino)-3-nitrophenyl)sulfonyl)-4-(4-((4′-chloro-5,5-dimethyl-3,4,5,6-tetrahydro-[1,1′-biphenyl]-2-yl)methyl)piperazin-1-yl)benzamide]
10 | 133 | CC(CNc1ccc(S(=O)(=O)NC(=O)c2ccc(N3CCN(CC4=C(c5ccc(Cl)cc5)CC(C)(C)CC4)CC3)cc2Oc2cnc3[nH]ccc3c2)cc1[N+](=O)[O-])N1CCP(C)(=O)CC1 (stereo not drawn) [Example 10, 2-((1H-pyrrolo[2,3-b]pyridin-5-yl)oxy)-4-(4-((4′-chloro-5,5-dimethyl-3,4,5,6-tetrahydro-[1,1′-biphenyl]-2-yl)methyl)piperazin-1-yl)-N-((4-((2-(4-methyl-4-oxido-1,4-azaphosphinan-1-yl)propyl)amino)-3-nitrophenyl)sulfonyl)benzamide]
11 | 122 | CC1(C)CCC(CN2CCN(c3ccc(C(=O)NS(=O)(=O)c4ccc(NCC5CCS(=N)(=O)CC5)c([N+](=O)[O-])c4)c(Oc4cnc5[nH]ccc5c4)c3)CC2)=C(c2ccc(Cl)cc2)C1 (stereo not drawn) [Example 28, 2-((1H-pyrrolo[2,3-b]pyridin-5-yl)oxy)-4-(4-((4′-chloro-5,5-dimethyl-3,4,5,6-tetrahydro-[1,1′-biphenyl]-2-yl)methyl)piperazin-1-yl)-N-((4-(((1-imino-1-oxidohexahydro-1λ^6-thiopyran-4-yl)methyl)amino)-3-nitrophenyl)sulfonyl) benzamide]
12 | 101 | CN=S1(=O)CCN(CCNc2ccc(S(=O)(=O)NC(=O)c3ccc(N4CCN(CC5=C(c6ccc(Cl)cc6)CC(C)(C)CC5)CC4)cc3Oc3cnc4[nH]ccc4c3)cc2[N+](=O)[O-])CC1 [Example 33, 2-((1H-pyrrolo[2,3-b]pyridin-5-yl)oxy)-4-(4-((4′-chloro-5,5-dimethyl-3,4,5,6-tetrahydro-[1,1′-biphenyl]-2-yl)methyl)piperazin-1-yl)-N-((4-((2-(1-(methylimino)-1-oxido-1λ^6-thiomorpholino)ethyl)amino)-3-nitrophenyl)sulfonyl) benzamide]
